Reference: patent publication EP4741387A1, “CRYSTAL FORM OF BIPYRIMIDINE COMPOUND, PREPARATION METHOD THEREFOR AND USE THEREOF” (Jiangsu Yahong Meditech Co., Ltd., priority 2023, dated 2025)
Converted amounts (≈) assume the structure as drawn. Marks after values point to notes of the source that are not given here.

What was measured:
[1] = Solubility study of crystal form I; assay type: physicochemical; conditions: for solubility: thermodynamic from solid
Protocol: (§1) The HPLC for solubility and stability is carried out using a Phenomenex Luna C18 (2), 3 µm, 2X50 mm chromatographic column.
50 µL or 100 µL of the solvent shown in Table 6 was gradually added to 2 mg of crystal form I, and the resulting mixture was manually shaken, vortexed, or sonicated to dissolve. Addition of solvent was stopped if the concentration was below 1 mg/mL. The solubility was calculated based on the sample amount and the total amount of solvent added.

[2] = Dynamic vapor sorption (DVS); assay type: physicochemical
[3] = Stability to forced degradation (oxidative and alkali); assay type: physicochemical; conditions: 1 mg/mL in 90% acetonitrile
Protocol: as §1
3 mg of crystal form I was weighed to formulate a stock solution of 1 mg/mL with 3 mL of 90% acetonitrile. Stability subjected to oxidative degradation (degraded with 3% H2O2 at 40°C for 1.5 hours) and alkali degradation (degraded with 0.1 N NaOH at 40°C for 2 hours) was studied.

[4] = Stability subjected to temperature and humidity (LC analysis); assay type: physicochemical; conditions: solid powder, 30 days
Protocol: as §1
1 to 3 mg of crystal form I solid powder was weighed, and placed at 60°C or 60°C / 75% RH for 30 days. Samples were collected for LC study and analysis.

[5] = Stability subjected to temperature and humidity (XRPD of crystal form); assay type: physicochemical; conditions: solid powder, 30 days
Protocol: The instrument is Shimadzu XRD-6000, and the samples are scanned according to the following parameters: The ray source is Cu~Kα target (1.54056 Å).
In addition, an appropriate amount of crystal form I solid powder was weighed, and placed under stability conditions (40°C / 75% RH, 60°C / 75% RH) for 30 days. Samples were collected for XRPD.

[6] = Stability subjected to light (LC analysis); assay type: physicochemical
Protocol: as §1
An appropriate amount of crystal form I solid powder was weighed, and placed in a light-stabilized chamber to irradiate under ICH light intensity conditions (at least greater than 1.2*10^6 Lux*h, illuminance of 4500±500 Lux, and intensity of 200 w*hr/m^2). Samples were collected for LC study and analysis.

[7] = Trituration study of crystal form I (XRPD); assay type: physicochemical; conditions: manual trituration 1 min or 3 min, without solvent, with water or ethanol
Protocol: Approximately 50 mg of crystal form I was manually triturated in a mortar using the condition shown in Table 5, and XRPD was carried out to investigate the crystal form of the triturated solid.

[8] = Pharmacokinetic study of intragastric administration of suspension; assay type: in vivo; conditions: male SD rats, result in words
Protocol: Crystal form I was used in pharmacokinetic studies in rats. Twelve male SD rats were weighed before administration, and housed using standard feeding methods. Animals were housed in standard cages with free access to food and water during the study. Rats were intragastrically administered the suspension of crystal form I. 40 µL of blood was collected at each sampling point, and placed in an EDTA-containing anticoagulant tube. After centrifugation, 20 µL of plasma was collected. All samples were immediately frozen in a -80°C refrigerator after collection.

[9] = Solubility study of crystal form I; assay type: physicochemical; conditions: pH 7.4 phosphate buffer (37°C for 24 hours)

Compound: COc1cnc(-c2c(OC)ncnc2C2CC2)nc1NCC12CCC(c3nc(C(F)(F)F)cn3C)(CC1)CC2 [crystal form I, 4'-cyclopropyl-5,6'-dimethoxy-N-((4-(1-methyl-4-(trifluoromethyl)-1H-imidazol-2-yl)bicyclo[2.2.2]octan-1-yl)methyl)-[2,5'-bipyrimidin]-4-amine]
- solubility ([1]; acetone, organic solvent or mixture): > 34.4 mg/mL
- solubility ([1]; acetonitrile, organic solvent or mixture): 14.2 to 28.4 mg/mL (≈ 26.1 to 52.2 mM)
- solubility ([1]; acetonitrile-water 9:1, organic solvent or mixture): > 32.4 mg/mL
- solubility ([1]; ethyl acetate, organic solvent or mixture): 14.9 to 29.8 mg/mL (≈ 27.4 to 54.8 mM)
- solubility ([1]; methanol, organic solvent or mixture): > 19.2 mg/mL
- solubility ([1]; methanol-water 1:1, aqueous with cosolvent or surfactant or cyclodextrin): < 0.895 mg/mL
- solubility ([1]; methanol-water 9:1, organic solvent or mixture): > 33.4 mg/mL
- solubility in organic solvent ([1]; organic solvent, result in words): good solubility
- solubility ([1]; pH 1.2 hydrochloric acid solution, pH 1.2, simulated gastric fluid): 8.45 to 16.9 mg/mL (≈ 15.5 to 31.1 mM)
- hygroscopicity ([2]; DVS, result in words): non-hygroscopic
- crystal form after DVS (XRPD) ([2]; XRPD before and after DVS): did not change
- water absorption rate ([2]; from 0% RH to 95% RH, 25°C): 0.02%
- degradation ([3]; alkali degradation: 0.1 NaOH at 40°C for 2 hour): only slight degradation
- degradation ([3]; oxidative degradation: 3% H2O2 at 40°C for 1.5 hours): only slight degradation
- change of content of the main component ([4]; 60°C / 75% RH): less than 0.2%
- change of content of the main component ([4]; 60°C): less than 0.2%
- crystal form change (XRPD) ([5]; 40°C / 75% RH): did not change its crystal form
- crystal form change (XRPD) ([5]; 60°C / 75% RH): did not change its crystal form
- photostability ([6]; ICH light conditions, result in words): photostable
- change of content of the main component ([6]; solid powder, ICH light intensity conditions (>1.2*10^6 Lux*h, 200 w*hr/m^2)): less than 0.2%
- crystal form after trituration (XRPD) [7]: all crystal form I
- bioavailability [8]: high
- exposure [8]: high
- plasma concentration [8]: high
- solubility at 24 h ([9]; aqueous buffer, thermodynamic from solid): 0.31 mg/mL (≈ 0.57 mM)
- solubility [9]: 0.31 * mg/mL
